# Measured values taken from publication PMC5917093, “Brain Transport Profiles of Ginsenoside Rb1 by Glucose Transporter 1: In Vitro and in Vivo” (Frontiers in Pharmacology, 2018).
# Legend:
# [1] = test system: rBMEC (primary cultured rat brain microvascular endothelial cells); test: Transporter inhibition assays: Rb1 uptake into rBMEC in presence of inhibitors; type: in vitro ADME; conditions: Rb1 60 μg/mL, 37°C; for effect on Rb1 uptake into rBMEC versus control: 120 min
# Description: In the present study, the uptake at 120 min was selected to measure the effect of test agents on the transport characteristics of Rb1. Rb1 concentration was set to be 60 μg/mL. The rBMEC was seeded out in 6-well plates, allowed to adhere, and grown to confluency. To study the transport mechanisms, uptake of Rb1 was carried out in the presence of a metabolic energy inhibitor and a series of established transporter inhibitors. The impact of these inhibitors on Rb1 uptake by rBMEC was assessed at the steady state at 37°C. NaN3 (500 μM), probenecid (100 μM), CsA (25, 50, and 100 μM), or phloretin (5 μM) was added to inhibit different transport systems. In the inhibition study, to further assess the effect of phloretin on Rb1 uptake into rBMEC, the cells were incubated at 37°C at a set time (5, 15, 30, 60, and 120 min). Uptake was measured after incubation with Rb1 in the presence of phloretin at the concentration of 5 μM.
# HPLC–MS/MS was composed by a Shimadzu LC-20A chromatographic system and an API 4000 mass spectrometer equipped with electrospray ionization (ESI) source system. MS/MS detection was performed on an API 4000 mass spectrometer using multiple reaction monitoring (MRM) mode by monitoring the fragmentation of m/z 1107.6 → 179.0 for Rb1 and m/z 779.4 → 345.2 for digoxin (IS). Chromatographic separations were carried out on a Shim-pack XD-ODS column (2.0 mm × 30 mm, 2.2 μm) with a Shim-pack GVD-ODS (2.0 mm × 5 mm, 4.6 μm) guard column (Shimadzu, Japan) at a flow rate of 0.28 mL/min using 10 mM acetic acid in water (phase A) and methanol (phase B) as mobile phase. A linear step gradient elution was performed as followed: phase B was increased from 45 to 90% within the first 3 min, and decreased to 45% within the next 3 min (total gradient time: 6 min). A 10 μL sample was injected into the system with the auto-sample conditioned at 4°C and column temperature maintained at 40°C.
# The biological samples (100 μL) were placed in a 1.5 mL Eppendorf tube, and mixed with 10 μL IS solution (500 ng/mL) for 3 min by vortexing. The mixture was extracted with methanol (0.9 mL) by vortexing, and then centrifuged at 14,000 rpm for 5 min. The supernatant (0.8 mL) was transferred to a new 1.5 mL Eppendorf tube and evaporated to dryness under vacuum. The dried residue was reconstituted with 100 μL methanol, vortex-mixed for 30 s, and centrifuged at 14,000 rpm for 5 min. Finally, 10 μL of the supernatant liquid was immediately subjected to HPLC–MS/MS analysis. The system control and data analysis were performed by AB Sciex Analyst software (the software version: Analyst 1.5.1).
# rBMEC = test: Cell viability assessment, CCK-8 assay; conditions: 37°C, 4 h
# Description: The cytotoxic effects of the test agents used in this study were assessed on confluent monolayers of cells in 96-well plates using a CCK-8 assay. Cells were subjected to a 200 μL/well of each drug in Hanks’ solution at the concentrations used in the experiments, followed by incubation for another 4 h. Then, 10 μL Cell Counting Kit-8 (CCK8, Dojindo) solution was added to each well. Plates were incubated for additional 4 h. Absorbance readings at 450 nm were obtained using a spectrophotometer (Thermo Varioskan) and expressed as percentage viability compared to control untreated cells.
# [2] = design: method as in Li et al., 2007; conditions: rats, TPNS injection 10.0 mg/kg intravenous; ref Li et al., 2007; cited from earlier work
# GLUT3 = test: Western blot, GLUT3 expression in rBMEC; type: cell-based, rat; conditions: phloretin 5 μM together with Rb1 60 μg/mL
# Description: (§1) Total proteins were extracted and 60 μg of each protein was separated on SDS-10% polyacrylamide gels. Proteins on the gel were transferred to PVDF membrane (Merck-Millipore). Blots were blocked with 5% skimmed milk dissolved in PBS containing 0.1% Tween-20 (PBST) for 2 h at room temperature. The membrane was incubated with primary antibody at 4°C overnight. Washing of the blots with PBST three times was followed by incubation with horseradish peroxidase-conjugated secondary antibody for 2 h at room temperature. After washing, the chemiluminescence signal was monitored using the ChemiDoc XRS+ system (Bio-Rad, Hercules, CA, United States). Densitometric semi-quantitative analysis of protein bands was carried out using Image J.
# GLUT1 [3] = test: Western blot, GLUT1 expression in rBMEC; type: cell-based, rat; conditions: phloretin 5 μM together with Rb1 60 μg/mL; at 30, 60 and 120 min
# Description: as §1
# GLUT1 [4] = test: Western blot, GLUT1 expression in normal rat brain; type: in vivo; conditions: phloretin 5 mg/kg i.v. for 1 week, P < 0.05
# Description: Rats were randomly divided into two groups in 36 of each group. One group served as the control and another group were treated with phloretin. Dose of phloretin was set to be 5 mg/kg. Rb1 (10 mg/kg, i.v.) was administered to the experimental rats after i.v. administration of phloretin or saline for consecutive 1 week. Six rats from each group were selected and the blood samples were collected into heparinized Eppendorf tubes via the abdominal aorta at 0.5, 2, and 6 h after Rb1 administration. Then, brain samples were immediately collected. The plasma samples were obtained by centrifuging at 1000 × g for 10 min. Plasma and brain samples were frozen at -80°C until analysis. Total proteins were extracted and 60 μg of each protein was separated on SDS-10% polyacrylamide gels. Proteins on the gel were transferred to PVDF membrane (Merck-Millipore). Blots were blocked with 5% skimmed milk dissolved in PBS containing 0.1% Tween-20 (PBST) for 2 h at room temperature. The membrane was incubated with primary antibody at 4°C overnight. […] After washing, the chemiluminescence signal was monitored using the ChemiDoc XRS+ system (Bio-Rad, Hercules, CA, United States). Densitometric semi-quantitative analysis of protein bands was carried out using Image J.
# GLUT1 [5] = target: T1, GLUT1 (Rattus norvegicus, UniProt P11167); test: Competitive inhibition of Rb1 uptake by rBMEC by D-glucose (Lineweaver-Burk plot); type: in vitro ADME; conditions: 100 mM D-glucose, Rb1 30-960 μg/mL, 37°C, 120 min
# T1 construct: GLUT1, as the major GLUT isoform expressed in brain endothelial cells; endogenous in cells; host or cells: primary cultured rat brain microvascular endothelial cells (rBMEC)
# T1 sequence (P11167 1-492): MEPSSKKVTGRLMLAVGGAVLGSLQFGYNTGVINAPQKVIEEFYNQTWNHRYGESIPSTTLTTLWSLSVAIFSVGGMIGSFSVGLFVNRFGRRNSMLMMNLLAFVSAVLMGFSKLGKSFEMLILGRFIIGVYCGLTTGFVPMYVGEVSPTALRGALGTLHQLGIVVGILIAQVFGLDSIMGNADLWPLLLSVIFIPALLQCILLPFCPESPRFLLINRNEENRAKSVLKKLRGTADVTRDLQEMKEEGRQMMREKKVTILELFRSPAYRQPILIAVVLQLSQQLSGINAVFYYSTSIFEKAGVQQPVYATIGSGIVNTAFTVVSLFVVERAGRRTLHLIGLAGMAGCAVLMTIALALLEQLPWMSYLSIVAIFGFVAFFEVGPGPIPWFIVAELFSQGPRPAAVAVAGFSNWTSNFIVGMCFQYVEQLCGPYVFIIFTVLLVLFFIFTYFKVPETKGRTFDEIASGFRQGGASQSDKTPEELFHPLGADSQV
# Description: In the competition experiments, Rb1 uptake (30–960 μg/mL) was measured in the absence and presence of D-glucose (100 mM) which is a principal physiological substrate of GLUT1. Briefly, cells were grown in 6-well plates for 7 days before their medium was removed, pre-incubated with warm glucose-free Hanks’ solution for 30 min. Subsequently, samples and controls were treated as described transport studies, but this time in addition with 100 mM D-glucose to the various concentrations of Rb1 in glucose-free Hanks’ solution at 37°C for 120 min.
# GLUT1 [6] = target: GLUT1; design: method as in Burant and Bell, 1992; conditions: ref Burant and Bell, 1992; read-out: Ki of GLUT1 for glucose; cited from earlier work
smiles,measurement,setting,value
"C=C1[C@@H](C)[C@H]2[C@H](Cc3ccccc3)NC(=O)[C@]23OC(=O)/C=C/C(=O)CCC[C@@H](C)C/C=C/[C@H]3[C@@H]1O [CsA, cytochalasin A]",effect on Rb1 uptake into rBMEC versus control,"[1]; CsA 25, 50 and 100 μM",no statistically significant differences
same,viability of rBMEC versus control (CCK-8),"rBMEC; CsA 25, 50 and 100 μM",no statistically significant differences
CCCN(CCC)S(=O)(=O)c1ccc(C(=O)O)cc1 [probenecid],effect on Rb1 uptake into rBMEC versus control,[1]; probenecid 100 μM,no statistically significant differences
same,viability of rBMEC versus control (CCK-8),rBMEC; probenecid 100 μM,no statistically significant differences
"[N-]=[N+]=[N-].[Na+] [NaN3, sodium azide]",effect on Rb1 uptake into rBMEC versus control,[1]; NaN3 500 μM,no statistically significant differences
same,viability of rBMEC versus control (CCK-8),rBMEC; NaN3 500 μM,no statistically significant differences
"CC(C)=CCC[C@](C)(O[C@@H]1O[C@H](CO)[C@@H](O)[C@H](O)[C@H]1O)[C@H]1CC[C@]2(C)[C@@H]1[C@H](O)C[C@@H]1[C@@]3(C)CC[C@H](O)C(C)(C)[C@@H]3[C@@H](O[C@@H]3O[C@H](CO)[C@@H](O)[C@H](O)[C@H]3O)C[C@]12C [Rg1, ginsenoside Rg1]",duration in brain tissue,[2],~1 h
same,largest content in brain tissue,[2],about 0.2 μg/g
O=C(CCc1ccc(O)cc1)c1c(O)cc(O)cc1O [phloretin],expression level of GLUT3 in rBMEC versus control,GLUT3,no significant difference
same,expression level of GLUT1 in rBMEC versus control,GLUT1 [3],significantly lower
same,"effect on cell-to-medium (C/M) ratio of Rb1, time course","[1]; phloretin 5 μM, 5-120 min, especially from min 30 to 120",significantly decreased
same,effect on Rb1 uptake into rBMEC versus control,"[1]; phloretin 5 μM, P < 0.01",significant decrease
same,expression level of GLUT1 in brain versus untreated normal rats,GLUT1 [4],significantly decreased
same,viability of rBMEC versus control (CCK-8),rBMEC; phloretin 5 μM,no statistically significant differences
OC[C@H]1OC(O)[C@H](O)[C@@H](O)[C@@H]1O (stereo partly drawn) [D-glucose],Ki,GLUT1 [5],885 µM
same,Ki,GLUT1 [6],~1000 µM
